Key:
FaDu H&N cancer cells = assay: Sensitivity of FaDu cells to cisplatin with siRNAs; assay type: cell-based
Procedure: BCLxL and MCL1 siRNAs were mixed together in Lipofectamine RNAiMax and used to transfect FaDu H&N cancer cells. Final combined siRNA concentrations of 0.05 nM, 0.15 nM and 0.45 nM were compared with the effect of a non-silencing (NS) siRNA administered at the same concentrations. The effect of treatment with siRNAs on sensitivity to cisplatin (at 0-64 μM) also were evaluated.

BCLxL = BCLxL (Homo sapiens, UniProt Q07817); conditions: consequence of its inhibition of BCLxL; cited from earlier work
Chain of BCLxL (Q07817 whole entry, species assumed): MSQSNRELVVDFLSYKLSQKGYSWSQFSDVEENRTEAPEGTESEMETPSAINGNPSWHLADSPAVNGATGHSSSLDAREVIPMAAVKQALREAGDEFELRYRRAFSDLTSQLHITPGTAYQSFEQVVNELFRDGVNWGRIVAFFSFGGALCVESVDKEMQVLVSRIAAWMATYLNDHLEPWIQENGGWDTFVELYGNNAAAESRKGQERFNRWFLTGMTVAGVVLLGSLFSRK

Structure (SMILES)	amount of cisplatin required to cause 100% inhibition of the tumor cell viability (FaDu H&N cancer cells; in the presence of 0.45 nM NS siRNA) [µM]	amount of cisplatin required to cause 100% inhibition of the tumor cell viability (FaDu H&N cancer cells; in the presence of 0.45 nM of BCLxL/MCL1 siRNAs) [µM]	thrombocytopenia (BCLxL)
N.N.[Cl][Pt][Cl] [cisplatin]	~32	< 1	–
CC1(C)CCC(c2ccc(Cl)cc2)=C(CN2CCN(c3ccc(C(=O)NS(=O)(=O)c4ccc(N[C@H](CCN5CCOCC5)CSc5ccccc5)c(S(=O)(=O)C(F)(F)F)c4)cc3)CC2)C1 [ABT263]	–	–	induces thrombocytopenia

— US20220288228A1, “METHODS OF CANCER TREATMENT BY DELIVERY OF siRNAs AGAINST BCLXL AND MCL1 USING A POLYPEPTIDE NANOPARTICLE” (Sirnaomics, Inc., priority 2021, published 2022)
